Measurements as given in US9849083B2, “Sublingual administration of statins” (LondonPharma Ltd., priority 2011, dated 2017).
Where a name gives a salt, the structure may show the parent alone. Read-outs that look alike come from different tables or passages of the source.

Experiments:
[1] = Phase 1 pharmacokinetic study of sublingual statin sprays in healthy male subjects; conditions: for AUC(0-inf) / AUC(0-t) / Cmax / Tmax: male, human, plasma; for Tmax: Tmax (median); for Tmax / Tmax (median): sublingual spray, healthy male subjects, simvastatin acid measured after simvastatin spray
[2] = Safety and tolerability in phase 1 trial of sublingual statin sprays; assay type: in vivo, human; conditions: all mild; simvastatin AE after 40 mg; fluvastatin with both doses
Method: The secondary objectives of this study were to: • establish the safety, tolerability, local tolerance and taste acceptance of the study medications
Safety was evaluated by adverse event (AE) monitoring, evaluation of any medically significant changes, based on physical examination findings, vital signs, and electrocardiograms (ECGs) assessments, clinical laboratory testing, local tolerance and taste acceptance.
Safety data was summarised by descriptive methods; continuous variables by summary statistics and categorical data by absolute and relative frequencies.

[3] = human, in vivo; for Tmax (median): male
[4] = clinical; conditions: male, human, in vivo; for Tmax: Tmax (median)
[5] = physchem; conditions: aqueous with cosolvent or surfactant or cyclodextrin
[6] = Chemical stability / compatibility of the statin in formulations; assay type: physicochemical
[7] = Solubility of the statin in formulation carriers; conditions: aqueous-based formulation, water

For CC[C@H](C)C(=O)O[C@H]1C[C@H](O)C=C2C=C[C@H](C)[C@H](CC[C@@H](O)C[C@@H](O)CC(=O)O)[C@H]21 [Pravastatin, pravastatin], the AUC(0-inf) ([1]; 20 mg) was 31.2 ng·h/mL, the AUC(0-t) ([1]; 20 mg) was 30 ng·h/mL and the Cmax ([1]; 20 mg) was 12.3 ng/mL. For the same molecule, the Tmax ([1]; 20 mg, 20 mg) was 1.3 h, the AUC(0-inf) ([1]; 40 mg) was 80.6 ng·h/mL and the AUC(0-t) ([1]; 40 mg) was 78.8 ng·h/mL. The Cmax ([1]; 40 mg) was 44.5 ng/mL, the Tmax ([1]; 40 mg, 40 mg) was 1.3 h and the “Tmax (median)” value ([1]; 20 mg) was 1.33 h. The “Tmax (median)” value ([1]; 40 mg) was 1.29 h, the “Treatment-emergent AEs reported” value [2] was “none” and the “CL/F (mean)” value ([3]; 20 mg) was 685.48 L/h. For the same molecule, the “CL/F (mean)” value ([3]; 40 mg) was 820.32 L/h, the half-life ([4]; 20 mg) was 1.58 h and the half-life ([4]; 40 mg) was 1.32 h.
For CCC(C)(C)C(=O)O[C@H]1C[C@@H](C)C=C2C=C[C@H](C)[C@H](CC[C@@H](O)C[C@@H](O)CC(=O)O)[C@H]21 [Simvastatin Acid, simvastatin acid], the “CL/F (mean)” value ([3]; 20 mg) was 609.03 L/h, the “CL/F (mean)” value ([3]; 40 mg) was 921.93 L/h and the AUC(0-inf) ([4]; 20 mg) was 37.7 ng·h/mL. For the same molecule, the AUC(0-t) ([4]; 20 mg) was 21.3 ng·h/mL, the Cmax ([4]; 20 mg) was 6.1 ng/mL and the Vd/F ([4]; 20 mg) was 3960 L. For the same molecule, the half-life ([4]; 20 mg) was 5.73 h, the Tmax ([4]; 20 mg) was 2.19 h and the AUC(0-inf) ([4]; 40 mg) was 47.6 ng·h/mL. For the same molecule, the AUC(0-t) ([4]; 40 mg) was 32.5 ng·h/mL, the Cmax ([4]; 40 mg) was 9.88 ng/mL and the Vd/F ([4]; 40 mg) was 4760 L. The half-life ([4]; 40 mg) was 3.65 h and the Tmax ([4]; 40 mg) was 3.88 h.
With CC(C)n1c(/C=C/C(O)CC(O)CC(=O)O)c(-c2ccc(F)cc2)c2ccccc21 (centres unmarked) [Fluvastatin (sodium salt), fluvastatin sodium] the solubility [5] was at least 25 mg/mL.
With CC(C)n1c(/C=C/C(O)CC(O)CC(=O)O)c(-c2ccc(F)cc2)c2ccccc21 (centres unmarked) [Fluvastatin, fluvastatin] the “Treatment-emergent AEs reported” value [2] was 5 related and 2 unrelated, the “CL/F (mean)” value ([3]; 10 mg) was 376.22 L/h and the “CL/F (mean)” value ([3]; 25 mg) was 363.21 L/h. The “Tmax (median)” value ([3]; 10 mg) was 0.56 h, the “Tmax (median)” value ([3]; 25 mg) was 0.57 h and the AUC(0-inf) ([4]; 10 mg) was 37.2 ng·h/mL. The AUC(0-t) ([4]; 10 mg) was 36.3 ng·h/mL, the Cmax ([4]; 10 mg) was 34.2 ng/mL and the half-life ([4]; 10 mg) was 1.18 h. The Tmax ([4]; 10 mg) was about 0.5 h, the AUC(0-inf) ([4]; 25 mg) was 91.7 ng·h/mL and the AUC(0-t) ([4]; 25 mg) was 89.9 ng·h/mL. For the same molecule, the Cmax ([4]; 25 mg) was 88 ng/mL, the half-life ([4]; 25 mg) was 1.4 h and the Tmax ([4]; 25 mg) was about 0.5 h.
For CCC(C)(C)C(=O)O[C@H]1C[C@@H](C)C=C2C=C[C@H](C)[C@H](CC[C@@H]3C[C@@H](O)CC(=O)O3)[C@H]21 [Simvastatin, simvastatin], the Tmax ([1]; 20 mg, 20 mg) was 1.88 h, the Tmax ([1]; 40 mg, 40 mg) was 1.88 h and the “Treatment-emergent AEs reported” value [2] was “one”. For the same molecule, the “CL/F (mean)” value ([3]; 20 mg) was 744.33 L/h, the “CL/F (mean)” value ([3]; 40 mg) was 764.67 L/h and the Vd/F ([4]; 20 mg) was 1980 L. The half-life ([4]; 20 mg) was 1.8 h, the Vd/F ([4]; 40 mg) was 2070 L and the half-life ([4]; 40 mg) was 1.9 h.
For CC[C@H](C)C(=O)O[C@H]1C[C@H](O)C=C2C=C[C@H](C)[C@H](CC[C@@H](O)C[C@@H](O)CC(=O)O)[C@H]21 [pravastatin sodium], the Reaction with ethanol [6] was “react with ethanol” and the solubility [7] was at least 150 mg/mL.
